In patent US10336702B2, “Pharmaceutically active compounds” (BERGENBIO ASA, priority 2015, dated 2019):

Assays:
p-Akt3 in WM115 cells = target: T1, p-Akt3 in WM115 cells (Homo sapiens, UniProt Q9Y243); experiment: Phospho-Akt cellular SureFire assay, p-Akt3 in WM115 cells; format: cell-based; conditions: insulin stimulated, read-out: Biological Assay 2 IC50 (nM) Akt3 WM115
T1 construct: SureFire assays to detect cellular p-Akt1, p-Akt2 and p-Akt3 levels in WM115 cells (Akt2/3) and LNCaP cells (Akt1); endogenous in cells; host or cells: WM115 (ECACC 91061232), insulin-stimulated
Outline: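 pThr308-Akt3 in lysates was quantified by bead-proximity SureFire detection, pairing a phospho-specific antibody with a total Akt3 antibody. Before lysis, WM115 cells in 0.1% FBS medium were treated for 15 min at 37 °C with compound (final DMSO 0.3%), following a 10 min stimulation with 100 nM insulin. IC50 was obtained by 4-parameter fitting.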

p-Akt2 in WM115 cells = target: T2, p-Akt2 in WM115 cells (Homo sapiens, UniProt P31751); experiment: Phospho-Akt cellular SureFire assay, p-Akt2 in WM115 cells; format: cell-based; conditions: insulin stimulated, read-out: Biological Assay 2 IC50 (nM) Akt2 WM115
T2 construct: SureFire assays to detect cellular p-Akt1, p-Akt2 and p-Akt3 levels in WM115 cells (Akt2/3) and LNCaP cells (Akt1); endogenous in cells; host or cells: WM115 (ECACC 91061232), insulin-stimulated
Outline: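 Readout is a bead-proximity SureFire assay pairing a pThr308 Akt antibody with a total Akt2 antibody, lysate and beads incubated 2 h plus 2 h at room temperature in the dark. Before lysis, serum-starved WM115 cells received 100 nM insulin (10 min), then test compound (15 min, 0.3% DMSO); IC50 by 4-parameter equation.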

p-Akt1 in LNCaP cells = target: T3, p-Akt1 in LNCaP cells (Homo sapiens, UniProt P31749); experiment: Phospho-Akt cellular SureFire assay, p-Akt1 in LNCaP cells; format: cell-based; conditions: read-out: Biological Assay 2 IC50 (nM) Akt1 LNCaP
T3 construct: SureFire assays to detect cellular p-Akt1, p-Akt2 and p-Akt3 levels in WM115 cells (Akt2/3) and LNCaP cells (Akt1); endogenous in cells; host or cells: LNCaP (ECACC 89110211)
Outline: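 Phospho-Thr308 Akt1 detected by AlphaScreen SureFire proximity beads in LNCaP lysates after 15 min compound treatment at 37 °C in 0.1% FBS medium, unstimulated, 0.3% DMSO. Cells plated at 5×10^4/well overnight; IC50 from a 4-parameter equation.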

Akt1 = target: T4, Akt1 (Homo sapiens, UniProt P31749); experiment: Akt activation assay (PDK1-mediated activation, LANCE Ultra crosstide TR-FRET), Akt1; format: biochemical; conditions: read-out: Biological Assay 1 IC50 (nM) Akt1
T4 construct: unspecified tag, removed (detagged) (cleaved yes); purchased SignalChem and Proteros (Akt1); Merck Millipore (PDK1) 14-452 (PDK1); none given for Akt1
Outline: (§1)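 TR-FRET read-out (665/615 nm ratio) after Eu-anti-phospho-crosstide antibody, 1 h. Reaction: compound preincubated with Akt isoform, then 5 nM PDK1, lipid vesicles with 0.55 μM PtdIns(3,4,5)P3, 100 μM ATP, 100 nM crosstide, 30 min, EDTA stop. IC50 from 4-parameter equation.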

Akt2 = target: T5, Akt2 (Homo sapiens, UniProt P31751); experiment: Akt activation assay (PDK1-mediated activation, LANCE Ultra crosstide TR-FRET), Akt2; format: biochemical; conditions: read-out: Biological Assay 1 IC50 (nM) Akt2
T5 construct: unspecified tag, removed (detagged) (cleaved yes); purchased SignalChem and Proteros (Akt2); Merck Millipore (PDK1) 14-452 (PDK1); none given for Akt2
Outline: as §1

Akt3 = target: T6, Akt3 (Homo sapiens, UniProt Q9Y243); experiment: Akt activation assay (PDK1-mediated activation, LANCE Ultra crosstide TR-FRET), Akt3; format: biochemical; conditions: read-out: Biological Assay 1 IC50 (nM) Akt3
T6 construct: unspecified tag, removed (detagged) (cleaved yes); purchased SignalChem and Proteros (Akt3); Merck Millipore (PDK1) 14-452 (PDK1); none given for Akt3
Outline: as §1

T4 sequence (P31749 whole entry): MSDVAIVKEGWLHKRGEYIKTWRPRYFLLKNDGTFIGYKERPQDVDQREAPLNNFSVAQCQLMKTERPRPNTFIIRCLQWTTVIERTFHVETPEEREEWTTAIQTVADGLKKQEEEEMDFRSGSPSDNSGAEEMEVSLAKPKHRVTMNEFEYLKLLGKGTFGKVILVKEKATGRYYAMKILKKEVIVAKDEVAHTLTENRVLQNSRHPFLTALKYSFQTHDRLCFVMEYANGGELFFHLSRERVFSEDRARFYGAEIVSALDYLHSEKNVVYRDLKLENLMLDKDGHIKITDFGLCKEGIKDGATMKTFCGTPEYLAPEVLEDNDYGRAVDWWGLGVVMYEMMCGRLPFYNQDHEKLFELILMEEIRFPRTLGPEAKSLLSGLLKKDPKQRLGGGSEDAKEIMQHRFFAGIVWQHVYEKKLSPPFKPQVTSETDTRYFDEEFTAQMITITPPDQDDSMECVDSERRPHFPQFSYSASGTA
T3 sequence (P31749 whole entry): as above
T6 sequence (Q9Y243 whole entry): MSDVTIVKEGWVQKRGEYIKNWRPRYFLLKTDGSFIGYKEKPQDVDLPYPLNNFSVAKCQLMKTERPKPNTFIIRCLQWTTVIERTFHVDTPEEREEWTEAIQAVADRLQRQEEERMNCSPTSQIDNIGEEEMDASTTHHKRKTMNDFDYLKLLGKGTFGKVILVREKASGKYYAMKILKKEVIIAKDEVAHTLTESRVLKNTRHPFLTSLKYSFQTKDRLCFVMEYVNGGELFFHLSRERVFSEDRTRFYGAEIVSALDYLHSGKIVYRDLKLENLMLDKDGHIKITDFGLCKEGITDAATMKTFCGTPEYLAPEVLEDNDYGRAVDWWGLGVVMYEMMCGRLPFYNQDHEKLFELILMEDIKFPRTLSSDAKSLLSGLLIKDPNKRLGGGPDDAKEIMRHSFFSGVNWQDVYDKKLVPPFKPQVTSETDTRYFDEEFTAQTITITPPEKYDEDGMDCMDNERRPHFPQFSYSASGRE
T1 sequence (Q9Y243 whole entry): as above
T2 sequence (P31751 whole entry): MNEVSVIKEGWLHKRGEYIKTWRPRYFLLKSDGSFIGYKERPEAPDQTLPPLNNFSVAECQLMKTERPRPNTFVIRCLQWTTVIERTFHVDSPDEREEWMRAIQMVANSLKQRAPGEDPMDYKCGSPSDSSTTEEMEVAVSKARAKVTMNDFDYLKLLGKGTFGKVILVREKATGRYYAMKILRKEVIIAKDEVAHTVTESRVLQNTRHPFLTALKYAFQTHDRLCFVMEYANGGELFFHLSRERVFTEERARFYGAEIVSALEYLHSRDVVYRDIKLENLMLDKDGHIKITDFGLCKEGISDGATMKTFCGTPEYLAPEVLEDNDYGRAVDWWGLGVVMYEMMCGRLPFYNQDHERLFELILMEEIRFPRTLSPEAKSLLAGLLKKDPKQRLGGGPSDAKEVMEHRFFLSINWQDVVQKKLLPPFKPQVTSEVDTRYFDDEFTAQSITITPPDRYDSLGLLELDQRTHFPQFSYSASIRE
T5 sequence (P31751 whole entry): as above

| IC50 (p-Akt3 in WM115 cells) [nM] | IC50 (p-Akt2 in WM115 cells) [nM] | IC50 (p-Akt1 in LNCaP cells) [nM] | IC50 (Akt1) [nM] | IC50 (Akt2) [nM] | IC50 (Akt3) [nM] | Compound |
| --- | --- | --- | --- | --- | --- | --- |
| 8 | 830 | > 19000 | 2600 | 140 | 5 | COC(=O)N(C)[C@H]1CC[C@H](CC(=O)Nc2cc(-c3ccsc3)c(-c3ccc([C@]4(N)C[C@](C)(O)C4)cc3)nn2)CC1 [Example 84, Methyl (trans-4-(2-((6-(4-(trans-1-amino-3-hydroxy-3-methylcyclobutyl)phenyl)-5-(thiophen-3-yl)pyridazin-3-yl)amino)-2-oxoethyl)cyclohexyl)(methyl)carbamate] |
| 170 | 8300 | > 21000 | > 30000 | 3900 | 45 | CN(C(=O)C1CC1)[C@H]1CC[C@H](CC(=O)Nc2cc(-c3ccccc3)c(-c3ccc(C(C)(C)N)cc3)nn2)CC1 [Example A86, N-(trans-4-(2-((6-(4-(2-aminopropan-2-yl)phenyl)-5-phenylpyridazin-3-yl)amino)-2-oxoethyl)cyclohexyl)-N-methylcyclopropanecarboxamide] |
| 180 | 5000 | > 10000 | 6100 | 520 | 92 | COC(=O)N(C)[C@H]1CC[C@H](C(F)C(=O)Nc2cnc(-c3ccc(C4(N)CCC4)cc3)c(-c3ccccc3)c2)CC1 (relative stereo) [Example 52, Methyl (trans-4-(2-((6-(4-(1-aminocyclobutyl)phenyl)-5-phenylpyridin-3-yl)amino)-1-fluoro-2-oxoethyl)cyclohexyl)(methyl)carbamate] |
| 730 | > 30000 | > 30000 | > 30000 | 2300 | 110 | CCC(=O)N(C)[C@H]1CC[C@H](CC(=O)Nc2cc(-c3ccccc3)c(-c3ccc(C4(N)CC4)c(F)c3)nn2)CC1 [Example A103, N-(trans-4-(2-((6-(4-(1-aminocyclopropyl)-3-fluorophenyl)-5-phenylpyridazin-3-yl)amino)-2-oxoethyl)cyclohexyl)-N-methylpropionamide] |
| 10 | 710 | 2400 | 2400 | 74 | 4 | CCOC(=O)N(C)[C@H]1CC[C@H](CC(=O)Nc2cc(-c3ccccc3)c(-c3ccc([C@]4(N)C[C@](C)(O)C4)cc3)nn2)CC1 [Example A80, Ethyl (trans-4-(2-((6-(4-(trans-1-amino-3-hydroxy-3-methylcyclobutyl)phenyl)-5-phenylpyridazin-3-yl)amino)-2-oxoethyl)cyclohexyl)(methyl)carbamate] |
| 390 | 9100 | > 30000 | > 30000 | 1200 | 69 | CCC(=O)N(C)[C@H]1CC[C@H](CC(=O)Nc2cc(-c3ccccc3)c(-c3ccc(C4(N)CC4)cc3)cn2)CC1 [Example A81, N-(trans-4-(2-((5-(4-(1-aminocyclopropyl)phenyl)-4-phenylpyridin-2-yl)amino)-2-oxoethyl)cyclohexyl)-N-methylpropionamide] |
| 37 | 570 | > 30000 | > 30000 | 270 | 17 | NC1(c2ccc(-c3cnc(NC(=O)C[C@H]4CC[C@H](N5CCOC5=O)CC4)cc3-c3ccccc3F)cc2)CCC1 [Example A65, N-(5-(4-(1-aminocyclobutyl)phenyl)-4-(2-fluorophenyl)pyridin-2-yl)-2-(trans-4-(2-oxooxazolidin-3-yl)cyclohexyl)acetamide] |
| 35 | 1400 | > 7500 | > 22000 | 460 | 10 | CC(=O)N(C)[C@H]1CC[C@H](CC(=O)Nc2cc(-c3ccccc3)c(-c3ccc(C4(N)CC4)cc3)nn2)CC1 [Example 72, N-(6-(4-(1-aminocyclopropyl)phenyl)-5-phenylpyridazin-3-yl)-2-(trans-4-(N-methylacetamido)cyclohexyl)acetamide] |
| 150 | 5200 | > 15000 | > 29000 | 6500 | 380 | COC(=O)N(C)[C@H]1CC[C@H](CC(=O)Nc2cnc(-c3ccc(C(C)(C)N)cc3)c(-c3ccccc3)c2)CC1 [Example 34, methyl (trans-4-(2-((6-(4-(2-aminopropan-2-yl)phenyl)-5-phenylpyridin-3-yl)amino)-2-oxoethyl)cyclohexyl)(methyl)carbamate] |
| 360 | > 28000 | > 30000 | > 30000 | > 30000 | 300 | CC(=O)N(C)[C@H]1CC[C@H](CC(=O)Nc2cc(-c3ccccc3)c(-c3ccc(C(C)(C)N)cc3)cn2)CC1 [Example 63, N-(5-(4-(2-aminopropan-2-yl)phenyl)-4-phenylpyridin-2-yl)-2-(trans-4-(N-methylacetamido)cyclohexyl)acetamide] |
| 21 | 1100 | > 22000 | 7700 | 580 | 180 | CC(=O)N[C@H]1CC[C@H](CC(=O)Nc2cnc(-c3ccc([C@]4(N)C[C@H](F)C4)cc3)c(-c3ccccc3)c2)CC1 [Example 15, 2-(trans-4-acetamidocyclohexyl)-N-(6-(4-(trans-1-amino-3-fluorocyclobutyl)phenyl)-5-phenylpyridin-3-yl)acetamide] |
| 22 | 410 | 2300 | 5900 | 70 | 5 | N-(6-(4-(trans-1-amino-3-hydroxy-3-methylcyclobutyl)phenyl)-5-phenylpyridin-3-yl)-2-(trans-4-(N-ethylacetamido)cyclohexyl)acetamide [Example 119] |
| 48 | 2600 | 5900 | 8900 | 120 | 7 | COC(=O)N(C(C)C)[C@H]1CC[C@H](CC(=O)Nc2cc(-c3ccccc3)c(-c3ccc([C@]4(N)C[C@](C)(O)C4)cc3)nn2)CC1 [Example 101, Methyl (trans-4-(2-((6-(4-(trans-1-amino-3-hydroxy-3-methylcyclobutyl)phenyl)-5-phenylpyridazin-3-yl)amino)-2-oxoethyl)cyclohexyl)(isopropyl)carbamate] |
| 13 | 900 | 3800 | 7000 | 160 | 5 | CCC(=O)N(C)[C@H]1CC[C@H](CC(=O)Nc2cc(-c3ccsc3)c(-c3ccc([C@]4(N)C[C@](C)(O)C4)cc3)nn2)CC1 [Example 91, N-(trans-4-(2-((6-(4-(trans-1-amino-3-hydroxy-3-methylcyclobutyl)phenyl)-5-(thiophen-3-yl)pyridazin-3-yl)amino)-2-oxoethyl)cyclohexyl)-N-methylpropionamide] |
| 170 | 10000 | > 26000 | > 30000 | > 30000 | 72 | CC(=O)N(C)[C@H]1CC[C@H](CC(=O)Nc2cnc(-c3ccc(C(C)(C)N)cc3)c(-c3ccccc3)c2)CC1 [Example 3, N-(6-(4-(2-aminopropan-2-yl)phenyl)-5-phenylpyridin-3-yl)-2-(trans-4-(N-methylacetamido)cyclohexyl)acetamide] |
| 48 | 940 | 9800 | 7200 | 150 | 5 | NC1(c2ccc(-c3nnc(NC(=O)C[C@H]4CC[C@H](N5CCOC5=O)CC4)cc3-c3ccccc3)cc2)CCC1 [Example 66, N-(6-(4-(1-aminocyclobutyl)phenyl)-5-phenylpyridazin-3-yl)-2-(trans-4-(2-oxooxazolidin-3-yl)cyclohexyl)acetamide] |
